What was measured:
Format in all cases: cell-based
DU-145 = experiment: Cell growth inhibition assay, prostate cancer cell line DU-145; settings: Homo sapiens, DU-145 prostate cancer cell line
In short: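 Readout was CellTiter-Glo luminescence after 72–96 h of compound exposure at 37 °C, 5% CO2. Plating density was 3,000 cells/well for DU-145 and HCT116 and 5,000 cells/well for SW626. Controls were 0.1% DMSO wells and medium-only wells.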

HEL92.1.7 = experiment: Cell growth inhibition assay, blood cancer cell line HEL92.1.7; settings: Homo sapiens, HEL 92.1.7, HEL92.1.7 blood cancer cell line
In short: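 Cells were seeded at 3,000/well (HCT116, DU-145) or 5,000/well (SW626 and the others) and exposed to serial compound dilutions for 72 to 96 h at 37 °C under 5% CO2. Viability was read as CellTiter-Glo luminescence against 0.1% DMSO and cell-free wells.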

LNCaP = experiment: Cell growth inhibition assay, prostate cancer cell line LNCaP (medium with 10 ng/mL IL-6); settings: Homo sapiens, medium supplemented with 10 ng/mL of IL-6, 10,000 cells/well
STAT3 = target: T1, STAT3 (Homo sapiens, UniProt P40763); experiment: STAT3 reporter gene assay (luciferase), LNCaP stable cell line (pSTAT3-TA-luc), IL-6 stimulation
T1 construct: plasmid pSTAT3-TA-luc), which contains a stably operating STAT3 promoter; endogenous in cells
T1 sequence (P40763 whole entry): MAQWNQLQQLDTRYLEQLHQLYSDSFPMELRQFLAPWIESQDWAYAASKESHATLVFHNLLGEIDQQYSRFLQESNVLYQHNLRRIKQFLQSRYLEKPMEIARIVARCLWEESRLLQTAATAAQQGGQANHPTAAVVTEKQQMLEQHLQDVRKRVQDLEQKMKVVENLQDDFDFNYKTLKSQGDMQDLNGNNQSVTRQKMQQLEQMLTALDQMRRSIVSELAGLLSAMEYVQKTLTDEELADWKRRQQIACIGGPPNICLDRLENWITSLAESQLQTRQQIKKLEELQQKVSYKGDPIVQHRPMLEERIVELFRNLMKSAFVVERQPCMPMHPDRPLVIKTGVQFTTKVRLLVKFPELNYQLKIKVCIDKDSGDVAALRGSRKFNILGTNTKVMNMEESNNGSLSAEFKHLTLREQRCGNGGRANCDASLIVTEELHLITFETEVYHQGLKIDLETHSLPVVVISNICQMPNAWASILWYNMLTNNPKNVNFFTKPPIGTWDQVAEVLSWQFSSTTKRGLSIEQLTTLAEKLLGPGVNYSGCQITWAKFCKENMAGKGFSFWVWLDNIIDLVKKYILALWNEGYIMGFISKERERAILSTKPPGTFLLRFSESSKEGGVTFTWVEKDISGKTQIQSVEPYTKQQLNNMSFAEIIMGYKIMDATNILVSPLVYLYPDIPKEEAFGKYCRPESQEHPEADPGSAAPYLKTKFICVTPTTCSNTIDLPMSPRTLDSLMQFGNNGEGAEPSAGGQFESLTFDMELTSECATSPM
In short: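 LNCaP cells stably carrying pSTAT3-TA-luc, in RPMI1640 with 3% DCC-FBS, were treated with compound and then stimulated with 10 ng/mL IL-6 for 24–48 h at 37 °C. Luciferase activity was measured in lysates. A parallel plate measured viability by CellTiter-Glo, with stimulated 0.1% DMSO wells as the positive control.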

U266 = experiment: Cell growth inhibition assay, blood cancer cell line U266; settings: Homo sapiens, U-266 blood cancer cell line
Procedure: The inhibitory effects of the compounds of the present invention against the growth of cancer cells were evaluated as shown below. The cancer cell lines including stomach cancer cell line (AGS), breast cancer cell lines (MDA-MB-231, MDA-MB-468, and BT-549), prostate cancer cell lines (LNCaP and DU-145), colon cancer cell line (HCT116), ovarian cancer cell line (SW626), liver cancer cell line (Hep3B), kidney cancer cell line (ACHN), lung cancer cell line (NCI-H23) and blood cancer cell lines (HEL92.1.7 and U266) were cultured under the protocol provided by each supplier. A medium supplemented with 10 ng/mL of IL-6 was used for LNCaP, a prostate cancer cell line, when treated with a drug. Each type of cells to be used in experiments were sub-cultured in a 96-well plate by counting the exact number of cells using Tali™ Image-based Cytometer (Life Technologies). In a 96-well plate, AGS, HCT116, and DU-145 were employed with 3,000 cells/well; NCI-H23, SW626, Hep3B, ACHN, BT-549, MDA-MB-231, HEL92.1.7, and U266 were employed with 5,000 cells/well; and LNCaP and MDA-MB-468 were employed with 10,000 cells/well. The cells were treated with the compounds listed in Examples which were diluted in various concentrations. Upon completion of the compounds treatment, AGS, HCT116, SW626, DU145, NCI-H23, Hep3B, ACHN, BT-549, LNCaP, HEL92.1.7, and U266 cells were cultured at 37° C. under 5% CO2 for from 72 to 96 hours, and MDA-MB-231 and MDA-MB-468 cells were cultured at 37° C. in air for from 72 to 96 hours. Subsequently, the cells were observed under microscope and drug precipitation and particular findings were investigated and recorded. And then, the 96-well plate was placed at room temperature for 30 minutes, added with 20 μL/well of CellTiter-Glo solution (Cat No. G7573, Promega) and shaken for 10 minutes, followed by being subjected to the measurement using PHERAstar™ microplate reader (BMG LABTECH) according to the supplier's general luminometer protocol. Wells where only culture liquid added without cell plating were used as a negative control, whereas wells where culture liquid containing 0.1% DMSO instead of the compounds listed in Examples were used as a positive control.

MDA-MB-231 = experiment: Cell growth inhibition assay, breast cancer cell line MDA-MB-231; settings: Homo sapiens; MDA-MB-231 breast cancer cell line, 5,000 cells/well

`COc1cc(OC(F)(F)F)cc(C(C)(C)c2cccc(NC(=O)c3cc4ccc(NS(C)(=O)=O)cc4[nH]3)c2)c1` [Example 9, N-(3-(2-(3-methoxy-5-(trifluoromethoxy)phenyl)propan-2-yl)phenyl)-6-(methylsulfonamido)-1H-indole-2-carboxamide] showed an IC50 (DU-145) of 0.035 µM, an IC50 (HEL92.1.7) of 0.95 µM and an IC50 (LNCaP) of 0.78 µM. For the same molecule, the IC50 (STAT3) was 0.056 µM, the IC50 (U266) was 0.74 µM and the IC50 (MDA-MB-231) was 0.012 µM.

For `CCOc1cc(OC(F)(F)F)cc(C(C)(C)c2cc(Br)cc(NC(=O)c3cc4ccc(NS(C)(=O)=O)cc4[nH]3)c2)c1` [Example 22, N-(3-bromo-5-(2-(3-ethoxy-5-(trifluoromethoxy)phenyl)propan-2-yl)phenyl)-6-(methylsulfonamido)-1H-indole-2-carboxamide], the IC50 (DU-145) was 0.048 µM, the IC50 (HEL92.1.7) was 0.13 µM and the IC50 (LNCaP) was 0.29 µM. The IC50 (STAT3) was 0.11 µM, the IC50 (U266) was 0.13 µM and the IC50 (MDA-MB-231) was 0.007 µM.

`COc1cc(OC(F)(F)F)cc(C(C)(C)c2cc(Cl)cc(NC(=O)c3cc4ccc(NS(C)(=O)=O)cc4[nH]3)c2)c1` [Example 24, N-(3-chloro-5-(2-(3-methoxy-5-(trifluoromethoxy)phenyl)propan-2-yl)phenyl)-6-(methylsulfonamido)-1H-indole-2-carboxamide] was tested, and the IC50 (DU-145) was 0.044 µM, the IC50 (HEL92.1.7) was 0.12 µM and the IC50 (LNCaP) was 0.083 µM. For the same molecule, the IC50 (STAT3) was 0.051 µM, the IC50 (U266) was 0.13 µM and the IC50 (MDA-MB-231) was 0.027 µM.

In the case of `COc1cc(OC(F)(F)F)cc(C(C)(C)c2cc(Cl)cc(NC(=O)c3cc4cc(NS(C)(=O)=O)ccc4s3)c2)c1` [Example 42, N-(3-chloro-5-(2-(3-methoxy-5-(trifluoromethoxy)phenyl)propan-2-yl)phenyl)-5-(methylsulfonamido)benzo[b]thiophene-2-carboxamide], the IC50 (DU-145) was 0.009 µM, the IC50 (HEL92.1.7) was 0.044 µM and the IC50 (LNCaP) was 0.032 µM. The IC50 (STAT3) was 0.007 µM, the IC50 (U266) was 0.023 µM and the IC50 (MDA-MB-231) was 0.005 µM.

`CC(C)Oc1cc(CN2CCN(C(=O)OC(C)(C)C)CC2)cc(C(C)(C)c2cc(Br)cc(NC(=O)c3cc4cc(NS(C)(=O)=O)ccc4s3)c2)c1` [Example 123, tert-butyl 4-(3-(2-(3-bromo-5-(5-(methylsulfonamido)benzo[b]thiophene-2-carboxamido)phenyl)propan-2-yl)-5-isopropoxybenzyl)piperazine-1-carboxylate] gave an IC50 (DU-145) of 0.042 µM, an IC50 (HEL92.1.7) of 0.11 µM and an IC50 (LNCaP) of 0.15 µM. It also gave an IC50 (STAT3) of 0.046 µM and an IC50 (U266) of 0.13 µM.

Molecule `CC(C)Oc1cc(CN2CCN(C(=O)C(C)(C)C)CC2)cc(C(C)(C)c2cc(Cl)cc(NC(=O)c3cc4cc(NS(C)(=O)=O)ccc4s3)c2)c1` [Example 127, N-(3-chloro-5-(2-(3-isopropoxy-5-((4-pivaloylpiperazin-1-yl)methyl)phenyl)propan-2-yl)phenyl)-5-(methylsulfonamido)benzo[b]thiophene-2-carboxamide] has an IC50 (DU-145) of 0.066 µM, an IC50 (HEL92.1.7) of 0.34 µM and an IC50 (LNCaP) of 0.14 µM. For the same molecule, the IC50 (STAT3) was 0.15 µM and the IC50 (U266) was 0.43 µM.

With `CC(C)Oc1cc(CN2CCN(c3noc(C(C)C)n3)CC2)cc(C(C)(C)c2cc(Cl)cc(NC(=O)c3cc4cc(NS(C)(=O)=O)ccc4s3)c2)c1` [Example 129, N-(3-chloro-5-(2-(3-isopropoxy-5-((4-(5-isopropyl-1,2,4-oxadiazol-3-yl)piperazin-1-yl)methyl)phenyl)propan-2-yl)phenyl)-5-(methylsulfonamido)benzo[b]thiophene-2-carboxamide] the IC50 (DU-145) was 0.06 µM, the IC50 (HEL92.1.7) was 0.24 µM and the IC50 (LNCaP) was 0.12 µM. It also gave an IC50 (STAT3) of 0.07 µM and an IC50 (U266) of 0.28 µM.

With `CC(C)Oc1cc(CN2CCN(C3COC3)CC2)cc(C(C)(C)c2cc(Cl)cc(NC(=O)c3cc4cc(NS(C)(=O)=O)ccc4s3)c2)c1` [Example 130, N-(3-chloro-5-(2-(3-isopropoxy-5-((4-(oxetan-3-yl)piperazin-1-yl)methyl)phenyl)propan-2-yl)phenyl)-5-(methylsulfonamido)benzo[b]thiophene-2-carboxamide] the IC50 (DU-145) was 0.17 µM, the IC50 (HEL92.1.7) was > 1.1 µM and the IC50 (LNCaP) was 0.76 µM. For the same molecule, the IC50 (STAT3) was 0.308 µM and the IC50 (U266) was 0.74 µM.
